Values of other authors, collected in paper PMC3826081 (Journal of the American Chemical Society, 2013).

Biological target: PG9
Conditions: read-out: Kd for binding of PG9; NMR studies; glycan-Asn alone; cited from earlier work

CC(=O)N[C@@H]1[C@@H](O)[C@H](O[C@@H]2O[C@H](CO)[C@@H](O[C@@H]3O[C@H](CO[C@H]4O[C@H](CO[C@H]5O[C@H](CO)[C@@H](O)[C@H](O)[C@@H]5O)[C@@H](O)[C@H](O[C@H]5O[C@H](CO)[C@@H](O)[C@H](O)[C@@H]5O)[C@@H]4O)[C@@H](O)[C@H](O[C@H]4O[C@H](CO)[C@@H](O)[C@H](O)[C@@H]4O)[C@@H]3O)[C@H](O)[C@H]2NC(C)=O)[C@@H](CO)O[C@H]1NC(=O)C[C@H](N)C(=O)O [Man5GlcNAc2–Asn]
Kd: 1000 to 2000 µM
